From patent publication US11623944B2, “Paenibacillus strain, antifungal compounds, and methods for their use” (Bayer CropScience LP, priority 2015, dated 2023) come the findings set out here.

The test system of the assay is Paenibacillus sp. strain NRRL B-50972. Nature of the assay: Antibiotic sensitivity on sLB agar. To be noted: growth after 24, 48, 72 hours at 30° C. In kind it is cell-based.

For the compound `CCn1cc(C(=O)O)c(=O)c2ccc(C)nc21` [Nalidixic acid], where the note is “antibiotic 25 μg/mL”, the Sensitive/Resistant result is reported as “Sensitive”.
Regarding Polymyxin B, the Sensitive/Resistant result (antibiotic 10 μg/mL) is reported as “Resistant”.
